Experimental data as given in ChEMBL document CHEMBL5678811 (Invest New Drugs, 2014).
Calls of active or inactive are those of the source. No cut-off for these calls is given here.

Tests used:
[1] = tested on: Calu-6; assay: Antitumor activity against human Calu-6 cells xenografted in CD1 nu/nu mouse assessed as tumor growth inhibition at 150 mg/kg, […] q3d administered via gavage for 4 days measured twice per week during compound dosing; type: functional, organism-based; details: time 4.0 day
[2] = tested on: Calu-6; assay: Antitumor activity against human Calu-6 cells xenografted in CD1 nu/nu mouse assessed as tumor growth inhibition at 60 mg/kg, […] q3d administered via gavage for 7 days measured twice per week during compound dosing; type: functional, organism-based; details: time 7.0 day

Nc1ccn([C@@H]2O[C@H](CO)[C@@H](O)C2(F)F)c(=O)n1
TGI [1]: Active
TGI [2]: Active
